Laboratory results taken from US7109215B2, “Compounds possessing neuronal activity” (Vertex Pharmaceuticals Incorporated, priority 1997, dated 2006).
Marks after values point to notes of the source that are not given here.

Columns and labels:
FKBP = FKBP (Homo sapiens, UniProt P62942); assay: Rotamase inhibition assay (chymotrypsin-coupled PPIase assay); format: biochemical; settings: 15 nM FKBP, 30 μM Suc-Ala-Leu-Pro-Phe-pNA, 15° C.
Method: Inhibition of FKBP enzyme activity was determined in the PPIase assay described in S. T. Park et al., J. Biol. Chem., 267, pp. 3316–24 (1992), the disclosure of which is herein incorporated by reference. This is a chymotrypsin-coupled assay in which FKBP catalyzes the cis to trans isomerization of the Leu-Pro bond in the peptide substrate Suc-Ala-Leu-Pro-Phe-pNA. The trans form, but not the cis form, is cleavable by chymotrypsin. The release Phe-pNA was monitored by absorbance at 400 nm. Chymotrypsyn cleavage is very rapid and therefore cis-to-trans isomerization is rate-limiting.
Each reaction mix consisted of 0.1 M Tris buffer, pH 7.8, 15 nM FKBP, 30 μM substrate and 0.5 nM to 10 μM of compound to be tested diluted in Me2SO. The mixture was incubated at 15° C. for 5 minutes and then reaction was initiated by addition of chymotrypsin (100 μg/ml final concentration) and followed spectrophotometrically for 5 minutes. Total reaction volume was 1 ml.

HL60/Vinc cells = assay: MDR sensitization (reversal) assay, doxorubicin, XTT viability; format: cell-based, human; settings: IC50 doxorubicin alone / IC50 doxorubicin plus compound
Method: We carried out multidrug resistance reversal (MDR) assays using L1210vMDRC.06 or HL60/Vinc cell lines. L1210vMDRC.06 are L1210 mouse leukemia cells transduced with the pHaMDR1/A retrovirus carrying a MDR1 cDNA, as described by Pastan et al., Proc. Natl. Acad. Sci. USA, 85, pp. 4486–4490 (1988). The L1210vMDRC.06 multidrug resistant line is a cell line that has been drug-selected by culturing transfected cells in 0.06 μg/ml colchicine. The HL60/Vinc human promyleocytic leukemia cell line is a multidrug resistant cell line derived from HL60 drug-sensitive parental cells by selection in increasing concentrations of vincristine.
Assays using HL60/Vinc cells were performed by plating cells in 96 well microtiter plates at a concentration of 4×10^4 cells/well. The cells were then exposed to various concentrations of doxorubicin (9 nM to 6.7 μM) in the presence or absence of various compounds of this invention at various concentrations (0.5, 1.0, 2.5, 5.0 or 10 μM) as described in U. Germann et al., Anti-Cancer Drugs, 8, pp. 141–155 (1997). After culturing the cells for 3 days, their viability was quantitated using the XTT dye method to assess mitochondrial function (Roehm et al., supra). Results were expressed as a ratio of the IC50 for doxorubicin alone to the IC50 for doxorubicin plus compound. In all assays the intrinsic antiproliferative or cytotoxicity activity of the MDR inhibitors was also determined for HL60/Vinc cells.

[1] = tested on: pheochromocytoma PC12 cells; assay: Neurite outgrowth quantitation in PC12 cell system; format: cell-based, rat; settings: for Neurite outgrowth, visual scale of 0 to 4: 1–5 ng/ml NGF, 72 hours
Method: In order to directly determine the neurotrophic activity of compounds described in this invention, the neurite outgrowth assay was carried out with pheochromocytoma PC12 cells as described by Lyons et al. (1994).
PC12 cells were maintained at 37° C. and 5% CO2 in Dulbecco's modified Eagle's medium (DMEM) supplemented with 10% heat-inactivated horse serum, 5% heat-inactivated fetal bovine serum (FBS), and 1% glutamate.
The cells were then plated at […] in 96 well plates coated with […] rat tail collagen and allowed to attach overnight. The medium was then replaced with DMEM, 2% heat-inactivated horse serum, 1% glutamate, 1–5 ng/ml of NGF (Sigma) and varying concentrations of the compounds of this invention (0.01 nM–10000 nM). The background control culture was administered with […] of NGF alone without compound. Positive control cultures were administered with high concentration of NGF (50 ng/ml). The cells were then incubated at 37° C. at 5% CO2 for 72 hours, fixed with 3% formaldehyde and nerve outgrowth was determined visually on a scale of 0 to 4.

FKBP, sequence (P62942 whole entry): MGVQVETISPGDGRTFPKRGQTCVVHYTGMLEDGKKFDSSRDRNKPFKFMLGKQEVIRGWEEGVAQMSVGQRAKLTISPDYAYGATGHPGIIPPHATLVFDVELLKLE

Ki (FKBP) | SMILES | MDR Ratio (HL60/Vinc cells; compound 2.5 μM) | Neurite outgrowth, visual scale of 0 to 4 ([1]; compound 10 nM) | Neurite outgrowth, visual scale of 0 to 4 ([1]; compound 100 nM) | Neurite outgrowth, visual scale of 0 to 4 ([1]; compound 1000 nM) | MDR Ratio (HL60/Vinc cells; compound 10 μM) | Neurite outgrowth, visual scale of 0 to 4 ([1]; compound 0.01 nM) | Neurite outgrowth, visual scale of 0 to 4 ([1]; compound 0.1 nM) | Neurite outgrowth, visual scale of 0 to 4 ([1]; compound 1 nM) | Neurite outgrowth, visual scale of 0 to 4 ([1]; compound 10000 nM) | Neurite outgrowth over background control cultures (in words) ([1]; PC12 assay)
> 50 µM | CN(CCc1ccccn1)C(=O)C(Cc1ccccc1)N(C)S(=O)(=O)c1ccc(N)cc1 (stereo in doubt) [Compound 2, (S)-(N-methyl)-2-(methyl-(4-amino-benzenesulfanilamido))-3-phenyl-N-(2-(pyridin-2yl)ethyl) propionamide] | 0.7 | 3*** | 3*** | 4*** |  |  |  |  |  | 
 | CN(CCc1ccccn1)C(=O)[C@@H]1CCCCN1S(=O)(=O)c1ccc(N)cc1 [Compound 1, N-(4-aminobenzenesulfonamido)-(S)-piperidine-2-carboxylic acid-2-((N-methyl)-2-pyridylethyl) amide] | 0.6 | 3*** | 1*** | 3*** |  |  |  |  |  | 
> 50 µM | CN(CCCc1cccnc1)C(=O)[C@@H]1CCCCN1S(=O)(=O)c1ccc(N)cc1 [Compound 3] | 0.6 | 2*** | 4*** | 4*** |  |  |  |  |  | 
> 25 µM | CN(C(=O)[C@H](Cc1ccccc1)N(C)S(=O)(=O)c1ccc(N)cc1)C(CCCc1cccnc1)CCCc1cccnc1 [Compound 4, (S)-(N-methyl)-2-(methyl-(4-amino-benzenesulfanilamido))-3-phenyl-N-(4-(pyridin-3-yl)-1-(3-(pyridin-3-yl)propyl)butyl) propionamide] | 6.2 | 3* | 3* | 4* |  |  |  |  |  | 
 | CN(C(=O)[C@H](Cc1ccccc1)N(C)S(=O)(=O)c1ccc(Nc2ccc([N+](=O)[O-])cc2[N+](=O)[O-])cc1)C(CCCc1cccnc1)CCCc1cccnc1 [Compound 5] |  | 2* | 3* | 3* | 30.4 |  |  |  |  | 
 | CN(C)c1ccc(/N=N\c2ccc(S(=O)(=O)N(C)[C@@H](Cc3ccccc3)C(=O)N(C)C(CCCc3cccnc3)CCCc3cccnc3)cc2)cc1 [Compound 6] |  | 4* | 2* | 3* | 17.7 |  |  |  |  | 
 | CN(C)c1cccc2c(S(=O)(=O)N(C)[C@@H](Cc3ccccc3)C(=O)N(C)C(CCCc3cccnc3)CCCc3cccnc3)cccc12 [Compound 7] |  | 2* | 3* | 3* | 21.9 |  |  |  |  | 
> 50 µM | CN(C(=O)[C@H](Cc1ccccc1)N(C)S(=O)(=O)c1ccccc1[N+](=O)[O-])C(CCCc1cccnc1)CCCc1cccnc1 [Compound 8] | 28.5 | 4* | 2* | 3* |  |  |  |  |  | 
 | CN(C(=O)[C@H](Cc1ccccc1)N(C)S(=O)(=O)CS(C)(=O)=O)C(CCCc1cccnc1)CCCc1cccnc1 [Compound 11] | 1.7 | 1* | 3* | 3* |  |  |  |  |  | 
 | CN(C(=O)[C@H](Cc1ccccc1)N(C)S(=O)(=O)Cc1ccccc1)C(CCCc1cccnc1)CCCc1cccnc1 [Compound 12] | 22.6 | 3* | 3* | 4* |  |  |  |  |  | 
 | CN(C(=O)[C@H](Cc1ccccc1)N(C)S(=O)(=O)/C=C/c1ccccc1)C(CCCc1cccnc1)CCCc1cccnc1 [Compound 13] | 19.3 | 3* | 3* | 4* |  |  |  |  |  | 
 | CN(C(=O)[C@H](Cc1ccccc1)N(C)S(=O)(=O)c1ccc(F)cc1)C(CCCc1cccnc1)CCCc1cccnc1 [Compound 14] | 19.9 | 3* | 2* | 4* |  |  |  |  |  | 
 | CC(=O)Nc1ccc(S(=O)(=O)N(C)[C@@H](Cc2ccccc2)C(=O)N(C)C(CCCc2cccnc2)CCCc2cccnc2)cc1 [Compound 15] | 2.4 | 3* | 3* | 3* |  |  |  |  |  | 
 | CN(C(=O)[C@H](Cc1ccccc1)N(C)S(=O)(=O)c1ccc(C#N)cc1)C(CCCc1cccnc1)CCCc1cccnc1 [Compound 16] | 19.9 | 3* | 4* | 3* |  |  |  |  |  | 
 | COc1ccc(S(=O)(=O)N(C)[C@@H](Cc2ccccc2)C(=O)N(C)C(CCCc2cccnc2)CCCc2cccnc2)cc1OC [Compound 17] | 14.6 | 3* | 3* | 4* |  |  |  |  |  | 
> 50 µM | COc1ccc(S(=O)(=O)N(C)[C@@H](Cc2ccccc2)C(=O)N(C)C(CCCc2cccnc2)CCCc2cccnc2)cc1 [Compound 18] | 10.8 | 3* | 4* | 4* |  |  |  |  |  | 
> 50 µM | O=C(OCc1ccccc1)C1CCCCN1 (centres unmarked) [Compound 101] |  |  |  |  |  |  |  |  |  | 
 | O=C(OC(CCCc1cccnc1)CCCc1cccnc1)C1CCCCN1 (centres unmarked) [Compound 102] | 1.2 | 4** | 2** | 3** |  | 3* | 3* | 4* | 4* | 
> 50 µM | O=C(NCc1cccnc1)C1CCCCN1 (centres unmarked) [Compound 103] | 0.7 | 0 | 0 | 0 |  |  |  |  |  | Negative results
> 50 µM | O=C(NCc1ccncc1)C1CCCCN1 (centres unmarked) [Compound 104] | 0.6 | 2* | 4* | 3* |  | 3* | 3* | 2* | 4* | 
> 50 µM | CN(CCc1ccccn1)C(=O)C1CCCCN1 (centres unmarked) [Compound 106] | 1.2 |  | 1* | 2* |  |  |  |  |  | 
 | CNC(Cc1ccccc1)C(=O)N(C)C(CCCc1cccnc1)CCCc1cccnc1 (centres unmarked) [Compound 109] |  | 3* | 2* | 4* |  | 3* | 4* | 4* | 3* | 
